Results on four molecules are retold here after patent US6416991B1, “Human cyclic nucleotide PDES” (Incyte Genomics, Inc., priority 1999, dated 2002).

A value given as a limit tells only on which side of the number the result lay.

Assay [1] deals with T1, HSPDE10A1 (Homo sapiens, UniProt Q9HCR9). As to the kind of experiment: Inhibition of HSPDE10A1 PDE activity, scintillation proximity assay with cGMP as substrate.
Assay [2] concerns PDE3. The following applies: read-out: Selective for PDE type (IC50): PDE3; cited from earlier work.
The test system of assay [3] is PDEs (non-selective). The following applies: range observed for other PDEs; read-out: Selective for PDE type (IC50): non-selective; cited from earlier work.
The subject of assay [4] is PDE4. The following applies: read-out: Selective for PDE type (IC50): PDE4; cited from earlier work.
The target in assay [5] is T1, HSPDE10A1. Kind of assay: HSPDE10A1 enzyme kinetics (Km, Vmax) with cAMP and cGMP as substrates. The following applies: substrate 0.15-10 μM, Michaelis-Menten plot.

T1 sequence (Q9HCR9 445-933): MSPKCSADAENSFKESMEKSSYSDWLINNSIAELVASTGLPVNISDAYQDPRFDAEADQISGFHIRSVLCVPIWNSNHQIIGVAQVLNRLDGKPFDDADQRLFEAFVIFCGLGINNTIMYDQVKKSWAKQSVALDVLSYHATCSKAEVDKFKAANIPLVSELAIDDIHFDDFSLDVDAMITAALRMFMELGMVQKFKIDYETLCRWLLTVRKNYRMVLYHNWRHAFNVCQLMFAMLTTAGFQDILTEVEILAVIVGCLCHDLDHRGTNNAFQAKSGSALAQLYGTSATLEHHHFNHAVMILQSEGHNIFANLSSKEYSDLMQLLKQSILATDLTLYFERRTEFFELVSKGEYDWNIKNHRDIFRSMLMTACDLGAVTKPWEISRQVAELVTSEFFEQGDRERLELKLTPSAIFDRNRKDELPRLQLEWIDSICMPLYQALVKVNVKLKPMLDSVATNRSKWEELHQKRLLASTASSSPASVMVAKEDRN

As for `Cc1[nH]c(=O)c(C#N)cc1-c1ccncc1` [Milrinone], the IC50 is greater than 200 µM in assay [1] and 1 µM in assay [2].
Turning to `CC(C)Cn1c(=O)n(C)c(=O)c2[nH]cnc21` [IBMX, 3-isobutyl1-methylxanthine], the 50% inhibitory concentration (IC50) in assay [3] is 2 to 50 µM; in assay [1] it was 40 µM.
`COc1ccc(C2CNC(=O)C2)cc1OC1CCCC1` (centres unmarked) [Rolipram]: the IC50 in assay [1] is 160 µM; in assay [4] it was […].
For `Nc1nc2c(ncn2[C@@H]2O[C@@H]3COP(=O)(O)O[C@H]3[C@H]2O)c(=O)[nH]1` [cGMP], in assay [5] (read-out: Km for HSPDE10A1), the Km was determined as 0.52 µM. Further, the “Vmax (rate of hydrolysis by HSPDE10A1)” value in assay [5] amounted to 0.21 μmole/min/ml enzyme.

What is called IC50 is the concentration that gives 50% inhibition. What is called Km is the substrate concentration at which the rate is half of its maximum.
